Measurements: patent US7449498B2, “Composite materials for bone defect filling and bone replacement” (Yesbio Co., Ltd., priority 2005, dated 2008)

Test: Measurement of exothermic temperature during polymerization
Format: physicochemical
Conditions: FIG. 3
Description: The composite material was mixed for 30 seconds and injected to a mold having a size in 5 mm of height and 3 mm of radius. Then, the temperature changes was measured in 3 samples per each group by inserting a thermocouple and read with a thermocouple reader (Yocogawa, Japan).

## C=C(C#N)C(=O)OCCCC [BCA, n-butyl-2-cyanoacrylate]
  temperature changes during polymerizing, in words: excessively exothermic
